{"source": "patent US6914045B2", "about": "“Glycopeptide antibiotics” (Wyeth Holdings Corporation, priority 2001, dated 2005)", "assay_in_all_cases": "in vitro antibacterial evaluation, MIC by broth dilution", "type_in_all_cases": "cell-based", "key": {"Enterococcus sp.": {"system": "Enterococcus sp.", "conditions": "broth dilution, 18 hours at 35° C.; for MIC Enterococcus faecalis (ATCC 29212): strain ATCC 29212; for MIC Enterococcus faecalis (GC 2242): strain GC 2242; for MIC Enterococcus faecium (GC 2243): strain GC 2243; for MIC Enterococcus faecalis (GC 2691): strain GC 2691; for MIC Enterococcus faecalis (GC 3059): strain GC 3059; for MIC Enterococcus faecalis (GC 4552): strain GC 4552; for MIC Enterococcus faecalis (GC 4553): strain GC 4553; for MIC Enterococcus faecalis (GC 4554): strain GC 4554; for MIC Enterococcus faecium (GC 4556): strain GC 4556; for MIC Enterococcus faecium (GC 4557): strain GC 4557; for MIC Enterococcus avium (GC 4558): strain GC 4558; for MIC Enterococcus faecalis (GC 6189): strain GC 6189", "how_it_was_run": "(§1)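 Read-out: the lowest concentration at which the test strain fails to grow. Serial dilutions (64-0.06 μg/mL) in Muller-Hinton II […], 5×10^5 CFU/mL inoculum, NCCLS M7-A2 procedure.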"}, "Escherichia coli": {"system": "Escherichia coli", "how_it_was_run": "as §1"}, "Staphylococcus sp.": {"system": "Staphylococcus sp.", "conditions": "broth dilution, 18 hours at 35° C.; for MIC Staphylococcus aureus (GC 1131): strain GC 1131", "how_it_was_run": "as §1"}, "Streptococcus sp.": {"system": "Streptococcus sp.", "conditions": "broth dilution, 18 hours at 35° C.; for MIC Streptococcus pneumoniae (ATCC 6301): strain ATCC 6301; for MIC Streptococcus pneumoniae (GC 1894): strain GC 1894; for MIC Streptococcus pyogenes (GC 4563): strain GC 4563; for MIC Streptococcus agalactiae (GC 4564): strain GC 4564; for MIC Streptococcus pneumoniae (GC 4565): strain GC 4565", "how_it_was_run": "as §1"}}, "data": [{"smiles": "CC(c1ccccc1)C1NC(=O)CNC(=O)C(CO)NC(=O)C(C(O)C2CNC(=N)N2C2OC(CO)C(O)C(O)C2O)NC(=O)C(C(O)C2CNC(=N)N2)NC(=O)C(Cc2ccc(OC3OC(CO)C(OC4OC5COC(c6cccc(Oc7ccccc7)c6)OC5C(O)C4O)C(O)C3O)cc2)NC1=O", "note": "(centres unmarked) [Example 170]", "values": [{"measurement": "MIC Enterococcus faecalis (ATCC 29212)", "setting": "Enterococcus sp.; inoculum 5×10^5 CFU/mL", "result": 4, "unit": "µg/mL"}, {"measurement": "MIC Enterococcus faecalis (GC 2242)", "setting": "Enterococcus sp.; inoculum 5×10^5 CFU/mL", "result": 4, "unit": "µg/mL"}, {"measurement": "MIC Enterococcus faecium (GC 2243)", "setting": "Enterococcus sp.; inoculum 5×10^5 CFU/mL", "result": 4, "unit": "µg/mL"}, {"measurement": "MIC Enterococcus faecalis (GC 2691)", "setting": "Enterococcus sp.; inoculum 5×10^5 CFU/mL", "result": 4, "unit": "µg/mL"}, {"measurement": "MIC Enterococcus faecalis (GC 3059)", "setting": "Enterococcus sp.; inoculum 5×10^5 CFU/mL", "result": 4, "unit": "µg/mL"}, {"measurement": "MIC Enterococcus faecalis (GC 4552)", "setting": "Enterococcus sp.; inoculum 5×10^5 CFU/mL", "result": 4, "unit": "µg/mL"}, {"measurement": "MIC Enterococcus faecalis (GC 4553)", "setting": "Enterococcus sp.; inoculum 5×10^5 CFU/mL", "result": 4, "unit": "µg/mL"}, {"measurement": "MIC Enterococcus faecalis (GC 4554)", "setting": "Enterococcus sp.; inoculum 5×10^5 CFU/mL", "result": 2, "unit": "µg/mL"}, {"measurement": "MIC Enterococcus faecium (GC 4556)", "setting": "Enterococcus sp.; inoculum 5×10^5 CFU/mL", "result": 4, "unit": "µg/mL"}, {"measurement": "MIC Enterococcus faecium (GC 4557)", "setting": "Enterococcus sp.; inoculum 5×10^5 CFU/mL", "result": 4, "unit": "µg/mL"}, {"measurement": "MIC Enterococcus avium (GC 4558)", "setting": "Enterococcus sp.; inoculum 5×10^5 CFU/mL", "result": 4, "unit": "µg/mL"}, {"measurement": "MIC Enterococcus faecalis (GC 6189)", "setting": "Enterococcus sp.; inoculum 5×10^5 CFU/mL", "result": 4, "unit": "µg/mL"}, {"measurement": "MIC Enterococcus faecalis (ATCC 29212)", "setting": "Enterococcus sp.", "result": 4, "unit": "µg/mL"}, {"measurement": "MIC Enterococcus faecalis (GC 2242)", "setting": "Enterococcus sp.", "result": 4, "unit": "µg/mL"}, {"measurement": "MIC Enterococcus faecium (GC 2243)", "setting": "Enterococcus sp.", "result": 4, "unit": "µg/mL"}, {"measurement": "MIC Enterococcus faecalis (GC 2691)", "setting": "Enterococcus sp.", "result": 4, "unit": "µg/mL"}, {"measurement": "MIC Enterococcus faecalis (GC 3059)", "setting": "Enterococcus sp.", "result": 4, "unit": "µg/mL"}, {"measurement": "MIC Enterococcus faecalis (GC 4552)", "setting": "Enterococcus sp.", "result": 4, "unit": "µg/mL"}, {"measurement": "MIC Enterococcus faecalis (GC 4553)", "setting": "Enterococcus sp.", "result": 4, "unit": "µg/mL"}, {"measurement": "MIC Enterococcus faecalis (GC 4554)", "setting": "Enterococcus sp.", "result": 2, "unit": "µg/mL"}, {"measurement": "MIC Enterococcus faecium (GC 4556)", "setting": "Enterococcus sp.", "result": 4, "unit": "µg/mL"}, {"measurement": "MIC Enterococcus faecium (GC 4557)", "setting": "Enterococcus sp.", "result": 4, "unit": "µg/mL"}, {"measurement": "MIC Enterococcus avium (GC 4558)", "setting": "Enterococcus sp.", "result": 4, "unit": "µg/mL"}, {"measurement": "MIC Enterococcus faecalis (GC 6189)", "setting": "Enterococcus sp.", "result": 4, "unit": "µg/mL"}, {"measurement": "MIC Escherichia coli (ATCC 25922)", "setting": "Escherichia coli; strain ATCC 25922, 18 hours at 35° C.", "result": ">64", "unit": "µg/mL"}, {"measurement": "MIC Escherichia coli (GC 4559)", "setting": "Escherichia coli; strain GC 4559, 18 hours at 35° C.", "result": ">64", "unit": "µg/mL"}, {"measurement": "MIC Escherichia coli (GC 4560)", "setting": "Escherichia coli; strain GC 4560, 18 hours at 35° C.", "result": 4, "unit": "µg/mL"}, {"measurement": "MIC Staphylococcus aureus (GC 1131)", "setting": "Staphylococcus sp.; inoculum 5×10^5 CFU/mL", "result": 4, "unit": "µg/mL"}, {"measurement": "MIC Staphylococcus aureus (ATCC 29213)", "setting": "Staphylococcus sp.; strain ATCC 29213", "result": 4, "unit": "µg/mL"}, {"measurement": "MIC Staphylococcus aureus (GC 1131)", "setting": "Staphylococcus sp.", "result": 4, "unit": "µg/mL"}, {"measurement": "MIC Staphylococcus aureus (GC 3051)", "setting": "Staphylococcus sp.; strain GC 3051", "result": 4, "unit": "µg/mL"}, {"measurement": "MIC Staphylococcus aureus (GC 3053)", "setting": "Staphylococcus sp.; strain GC 3053", "result": 1, "unit": "µg/mL"}, {"measurement": "MIC Staphylococcus aureus (GC 4541)", "setting": "Staphylococcus sp.; strain GC 4541", "result": 2, "unit": "µg/mL"}, {"measurement": "MIC Staphylococcus aureus (GC 4542)", "setting": "Staphylococcus sp.; strain GC 4542", "result": 4, "unit": "µg/mL"}, {"measurement": "MIC Staphylococcus aureus-SMITH (GC 4543)", "setting": "Staphylococcus sp.; strain GC 4543", "result": 4, "unit": "µg/mL"}, {"measurement": "MIC Staphylococcus aureus (GC 4544)", "setting": "Staphylococcus sp.; strain GC 4544", "result": 2, "unit": "µg/mL"}, {"measurement": "MIC Staphylococcus aureus (GC 4545)", "setting": "Staphylococcus sp.; strain GC 4545", "result": 4, "unit": "µg/mL"}, {"measurement": "MIC Staphylococcus haemolyticus (GC 4546)", "setting": "Staphylococcus sp.; strain GC 4546", "result": 8, "unit": "µg/mL"}, {"measurement": "MIC Coagulase Negative Staphylococcus (GC 4547)", "setting": "Staphylococcus sp.; strain GC 4547", "result": 4, "unit": "µg/mL"}, {"measurement": "MIC Coagulase Negative Staphylococcus (GC 4548)", "setting": "Staphylococcus sp.; strain GC 4548", "result": 1, "unit": "µg/mL"}, {"measurement": "MIC Coagulase Negative Staphylococcus (GC 4549)", "setting": "Staphylococcus sp.; strain GC 4549", "result": 2, "unit": "µg/mL"}, {"measurement": "MIC Coagulase Negative Staphylococcus (GC 4551)", "setting": "Staphylococcus sp.; strain GC 4551", "result": 1, "unit": "µg/mL"}, {"measurement": "MIC Coagulase Negative Staphylococcus (GC 6257)", "setting": "Staphylococcus sp.; strain GC 6257", "result": 1, "unit": "µg/mL"}, {"measurement": "MIC Streptococcus pneumoniae (ATCC 6301)", "setting": "Streptococcus sp.; inoculum 5×10^5 CFU/mL", "result": "<0.06", "unit": "µg/mL"}, {"measurement": "MIC Streptococcus pneumoniae (GC 1894)", "setting": "Streptococcus sp.; inoculum 5×10^5 CFU/mL", "result": "<0.06", "unit": "µg/mL"}, {"measurement": "MIC Streptococcus pyogenes (GC 4563)", "setting": "Streptococcus sp.; inoculum 5×10^5 CFU/mL", "result": "<0.06", "unit": "µg/mL"}, {"measurement": "MIC Streptococcus agalactiae (GC 4564)", "setting": "Streptococcus sp.; inoculum 5×10^5 CFU/mL", "result": "<0.06", "unit": "µg/mL"}, {"measurement": "MIC Streptococcus pneumoniae (GC 4565)", "setting": "Streptococcus sp.; inoculum 5×10^5 CFU/mL", "result": "<0.06", "unit": "µg/mL"}, {"measurement": "MIC Streptococcus pneumoniae (ATCC 6301)", "setting": "Streptococcus sp.", "result": "<0.06", "unit": "µg/mL"}, {"measurement": "MIC Streptococcus pneumoniae (GC 1894)", "setting": "Streptococcus sp.", "result": "<0.06", "unit": "µg/mL"}, {"measurement": "MIC Streptococcus pyogenes (GC 4563)", "setting": "Streptococcus sp.", "result": "<0.06", "unit": "µg/mL"}, {"measurement": "MIC Streptococcus agalactiae (GC 4564)", "setting": "Streptococcus sp.", "result": "<0.06", "unit": "µg/mL"}, {"measurement": "MIC Streptococcus pneumoniae (GC 4565)", "setting": "Streptococcus sp.", "result": "<0.06", "unit": "µg/mL"}]}]}
